Reference: patent US20100130554A1, “USE OF 4-CYCLOPROPYLMETHOXY-N-(3,5-DICHLORO-1-OXIDOPYRIDIN-4-YL)-5-(METHOXY)PYRIDINE-2-CARBOXAMIDE FOR THE TREATMENT OF MOTOR DISORDERS RELATED TO PARKINSON'S DISEASE” (SANOFI-AVENTIS, priority 2007, published 2010)

Columns and labels:
ferrets = assay: Evaluation of the emetic effects in ferrets after oral gavage; type: in vivo; settings: observed up to 6 hours
Experimental: The emetic capacity of 4-cyclopropylmethoxy-N-(3,5-dichloro-1-oxidopyridin-4-yl)-5-(methoxy)pyridine-2-carboxamide was evaluated in ferrets. Two groups of ferrets were used, the first being given the carrier (PEG200) and the second being given the 4-cyclopropylmethoxy-N-(3,5-dichloro-1-oxidopyridin-4-yl)-5-(methoxy)pyridine-2-carboxamide in solution in the carrier (PEG 200), by oral gavage. The animals were observed continually for 2 hours following administration, and then every hour until 6 hours after administration. The clinical signs (in particular, retching and vomiting) were noted.
The emetic capacity of (R)-(−)-rolipram was evaluated in the ferrets. Two groups of ferrets were used, the first being given the carrier (PEG200) and the second being given the […] in solution in the carrier (PEG 200), by oral gavage, at doses of 0.05 mg/kg and of 0.1 mg/kg. The animals were observed continually for the 2 hours following administration, and then once an hour up to 6 hours after the administration. The clinical signs were noted.

dopamine uptake sites = assay: Protection in a model of Parkinson's disease: dopaminergic neuron loss in mice poisoned with MPTP, striatal dopamine uptake sites quantified by GBR12935 binding; type: in vivo; settings: MPTP-poisoned C57BL6 mice, striatum, gavage twice a day for 17 days, MPTP only = 58%, p<0.01 vs MPTP only
Experimental: The effects of the 4-cyclopropylmethoxy-N-(3,5-dichloro-1-oxidopyridin-4-yl)-5-(methoxy)pyridine-2-carboxamide used according to the invention were evaluated in mice using a model of dopaminergic neuron loss.
Protection in a Model of Parkinson's disease (Dopaminergic Neuron Loss in Mice Poisoned with MPTP (1-methyl-4-phenyl-1,2,3,6-tetrahydropyridine):
C57BL6 mice are given 4 intraperitoneal injections of 20 mg/kg of MPTP, each 2 hours apart. The 4-cyclopropylmethoxy-N-(3,5-dichloro-1-oxidopyridin-4-yl)-5-(methoxy)pyridine-2-carboxamide in solution in the carrier (methylcellulose (MC) (0.6%)+Tween-80 (0.5%)) is administered by gavage between the 2nd and 3rd injection of MPTP and just after the final injection of MPTP, and then twice a day for 17 days at the total daily doses of 0.015 and 0.050 mg/kg. Twenty-four hours after the final treatment, the striatum is removed and the dopamine uptake sites are quantified using a GBR12935 (1-[2-(diphenylmethoxy)ethyl]-4-(3-phenylpropyl)piperazine) binding method.

[1] = cited from earlier work
[2] = oral gavage in PEG200, 0.1 mg/kg

Row | Compound | emetic effects (retching and vomiting) (ferrets; [2]) | density of the dopamine uptake sites, % of the level observed in the normal animals (dopamine uptake sites; total daily dose 0.015 mg/kg/d) | density of the dopamine uptake sites, % of the level observed in the normal animals (dopamine uptake sites; total daily dose 0.050 mg/kg/d) | emetic effects (retching and vomiting) (ferrets; oral gavage in PEG200, 0.05 mg/kg) | emetic effects in clinical studies [1]
1 | COc1cnc(C(=O)Nc2c(Cl)c[n+]([O-])cc2Cl)cc1OCC1CC1 [4-cyclopropylmethoxy-N-(3,5-dichloro-1-oxidopyridin-4-yl)-5-(methoxy)pyridine-2-carboxamide] | neither retching nor vomiting | 82% | 85% | – | –
2 | COc1ccc([C@@H]2CNC(=O)C2)cc1OC1CCCC1 [(R)-(−)-rolipram, (4R)-4-[3-(cyclopentyloxy)-4-methoxyphenyl]pyrrolidine-2-one] | induce vomiting | – | – | induce vomiting | –
3 | COc1ccc(C2CNC(=O)C2)cc1OC1CCCC1 (stereo not drawn) [rolipram] | – | – | – | – | induce emetic effects
